Data from patent publication US8604053B2, “TRPV1 antagonists” (AbbVie Inc., priority 2008, dated 2013).

Target: T1, human TRPV1 (Homo sapiens, UniProt Q8NER1)
T1 construct: expressed in transfected cells; host or cells: HEK293-F cells, transient transfection
Experiment: Acid activation assay, ratiometric calcium imaging
Assay type: cell-based
Conditions: HEK293-F cells expressing human TRPV1, Example 56 at 3 μM; for block of TRPV1-mediated increase in intracellular calcium concentration in response to pH 5.5: acid pH 5.5; for block of TRPV1-mediated increase in intracellular calcium concentration in response to capsaicin: capsaicin 1 μM
Procedure: The differential effects of TRPV1 antagonists on capsaicin- or acid-induced responses were verified by ratiometric calcium imaging. Transiently transfected HEK293-F cells expressing human TRPV1 were incubated with 5 μM Fura-2AM for 30 minutes at 37° C. Intracellular calcium concentration was measured on an imaging system consisting of the X-Cite™ 120 Fluorescence Illumination System (EXFO) and a Digital Camera (C4742-95, Hamamatsu Photonics) connected to an Olympus 1×71 microscope. Through the control of Slide Book 4.2 software, fluorescence was measured during excitation at 340 and 380 nm; the ratio of the fluorescence at both excitation wavelengths (F340/F380) was monitored. D-PBS, pH 7.4 (Invitrogen, catalog no. 14287) was used as the extracellular solution. Acidic buffer was prepared by titrating D-PBS, pH 7.4 with 7 N HCl to pH 5.5. Agonists and antagonists were prepared in the pH 7.4 or 5.5 solutions. Rapid solution switch was achieved by using a ValveLink system.
Over the time 1250-second course, the cells were challenged sequentially with solutions containing Example 56 (3 μM), Example 56 (3 μM) plus capsaicin (1 μM), Example 56 (3 μM) plus acid (pH 5.5), or acid (pH 5.5) alone. The black bars above the traces designate addition and duration of solution applications. Spaces between horizontal bars represent periods in which cells were perfused with D-PBS, pH 7.4 alone. […]

T1 sequence (Q8NER1 whole entry): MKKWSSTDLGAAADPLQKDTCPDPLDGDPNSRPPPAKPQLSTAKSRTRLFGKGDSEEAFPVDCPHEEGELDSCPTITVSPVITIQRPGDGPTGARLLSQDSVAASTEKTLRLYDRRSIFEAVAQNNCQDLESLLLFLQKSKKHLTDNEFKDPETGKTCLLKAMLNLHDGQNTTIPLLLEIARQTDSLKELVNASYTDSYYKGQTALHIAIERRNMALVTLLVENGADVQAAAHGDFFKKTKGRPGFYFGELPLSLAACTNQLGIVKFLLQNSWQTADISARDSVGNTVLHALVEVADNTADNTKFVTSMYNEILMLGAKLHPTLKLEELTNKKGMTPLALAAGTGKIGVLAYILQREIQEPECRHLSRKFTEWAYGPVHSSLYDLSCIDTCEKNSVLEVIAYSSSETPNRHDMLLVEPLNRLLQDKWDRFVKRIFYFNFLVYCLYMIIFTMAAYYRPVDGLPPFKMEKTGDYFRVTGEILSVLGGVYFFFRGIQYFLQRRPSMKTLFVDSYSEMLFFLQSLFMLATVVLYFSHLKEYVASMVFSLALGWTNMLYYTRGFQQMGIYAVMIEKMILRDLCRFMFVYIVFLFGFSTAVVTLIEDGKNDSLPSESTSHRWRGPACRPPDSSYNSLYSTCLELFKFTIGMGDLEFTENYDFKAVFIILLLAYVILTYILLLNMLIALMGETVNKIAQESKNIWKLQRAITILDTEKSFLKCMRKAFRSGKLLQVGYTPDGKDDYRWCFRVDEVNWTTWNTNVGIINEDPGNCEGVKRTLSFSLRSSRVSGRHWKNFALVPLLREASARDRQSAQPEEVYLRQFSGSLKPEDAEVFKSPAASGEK

Substance	block of TRPV1-mediated increase in intracellular calcium concentration in response to pH 5.5	block of TRPV1-mediated increase in intracellular calcium concentration in response to capsaicin
N-[(4R)-2,2-diethyl-8-fluoro-3,4-dihydro-2H-chromen-4-yl]-N-(3-methylisoquinolin-5-yl)urea [Example 62]	did not completely block	completely blocked
N-[(4R)-2,2-diethyl-6-fluoro-3,4-dihydro-2H-chromen-4-yl]-N-(3-methylisoquinolin-5-yl)urea [Example 56]	did not completely block	completely blocked
